Laboratory results reported in patent US20050267073A1, “Triheterocyclic compounds, compositions, and methods for treating cancer or viral diseases” (priority 2004, published 2005).
Converted amounts (≈) assume the structure as drawn. Structures can show the parent of a compound that is named as a salt. Where two headings read alike, the source gives them in different places.

Legend:
[1] = system: calf intestinal alkaline phosphatase; test: Conversion of phosphate pro-drug by calf intestinal alkaline phosphatase in vitro; format: in vitro ADME; details: 15 μM, 0.02 U/100 μL enzyme, pH 7.4; 30, 60, 120 minutes; FIG. 5
Method: (§1) The conversion into biologically active drug of phosphate pro-drugs by calf intestinal alkaline phosphatase and human placental alkaline phosphatase was measured in vitro using purified enzymes. Purified calf intestinal alkaline phosphatase (Roche Diagnostic Inc. Laval, Quebec, Canada) or human placental alkaline phosphatase (Sigma-Aldrich Canada Ltd. Oakville, Ontario, Canada) was added at a concentration of 0.02 U/100 μL to a solution containing 15 μM of Compound 66, 20 mM Tris-HCl, pH 7.4 and 0.9% NaCl. The solutions were incubated for 30, 60 or 120 minutes. A solution containing 15 μM of Compound 66, 20 mM Tris-HCl, pH 7.4 and 0.9% NaCl was used as a reference (time=0 minutes). To each solution, an equal volume (100 μL) of ice-cold acetonitrile was added, and then the mixture was vortexed and transferred to glass vials. A standard concentration curve of the pro-drug and the drug was prepared in 10 mM Tris-HCl, pH 7.4, 0.45% NaCl and 50% acetonitrile. All samples were immediately analyzed by LC/MS.

physchem = details: water
Method: (§4) To determine whether a compound is soluble in a solution, the solution was filtered on 0.2 μM polytetrafluoroethylene filters (Whatman Inc. Clifton, N.J., USA) and the compound concentration in the filtrate was measured by LC/MS and compared to the expected concentration.

[2] = biological target: T1, human placental alkaline phosphatase (Homo sapiens, UniProt P05187); test: Conversion of phosphate pro-drug by human placental alkaline phosphatase in vitro; format: in vitro ADME; details: 15 μM, 0.02 U/100 μL enzyme, pH 7.4; 30, 60, 120 minutes; FIG. 4
T1 construct: purchased Sigma-Aldrich Canada Ltd
T1 sequence (P05187 23-506): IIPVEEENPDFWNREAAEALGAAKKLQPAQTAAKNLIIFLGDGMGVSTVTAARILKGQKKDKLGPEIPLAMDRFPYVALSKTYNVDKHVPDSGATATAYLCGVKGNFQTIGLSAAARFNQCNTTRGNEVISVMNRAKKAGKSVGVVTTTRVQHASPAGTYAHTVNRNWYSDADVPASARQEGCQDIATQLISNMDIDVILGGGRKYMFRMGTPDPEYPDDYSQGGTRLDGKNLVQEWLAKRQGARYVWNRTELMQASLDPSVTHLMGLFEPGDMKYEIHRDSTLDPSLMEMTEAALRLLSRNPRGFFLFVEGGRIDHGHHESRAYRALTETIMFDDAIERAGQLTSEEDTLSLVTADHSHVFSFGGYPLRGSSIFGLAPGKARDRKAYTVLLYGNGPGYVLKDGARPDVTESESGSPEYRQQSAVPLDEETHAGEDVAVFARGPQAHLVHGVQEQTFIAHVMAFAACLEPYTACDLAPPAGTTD
Method: as §1

[3] = system: human prostatic adenocarcinoma cancer PC3 cells; test: Growth of PC3 prostatic tumors in SCID mice; format: in vivo; details: 5 consecutive intravenous injections; Compound 1 Mesylate Salt 4.84 μMoles/Kg; Compound 66 4.84 or 14.51 μMoles/Kg; FIG. 6
Method: The human prostatic adenocarcinoma cancer PC3 cells were purchased from the American Type Culture Collection (ATCC). These cells were confirmed to be free of mycoplasma infection. Cells were maintained in the Roswell Park Memorial Institute (RPMI), supplemented with 10% inactivated fetal bovine serum and 1% penicillin-streptomycin-L-Glutamine, under 5% carbon dioxide (CO2) at 37° C. For prostatic-tumor induction, cells were grown lower than 70% confluence in complete medium and then collected with trypsin (Bio Whittaker, Rockland, Me., USA). Cells were then centrifuged and washed 2 times in phosphate buffer solution (PBS) and resuspended in PBS at 1.5×10^6 cells/0.1 mL. PC3 cells were then transplanted subcutaneously into the flank of SCID mice (Charles River Laboratories, Wilmington, Mass., USA), as a suspension of tumor cells (1.5×10^6 cells in 100 μL PBS), under a laminar airflow hood. Eleven (11) days later, the size of each tumor was measured. […] Relative tumor size and volume was calculated as follows: length (cm)×[width (cm)]^2/2. […]

[4] = system: H1299 human non-small cell lung cancer cells; test: Cell viability by cellular ATP levels (ViaLight), H1299 cells; format: cell-based; details: Homo sapiens
Description: (§2) […]. […] […]. The total dimethyl sulfoxide on the cells was 1%. […] […].
(§3) As depicted in Table 4, these compounds were efficient in decreasing cellular ATP levels in HI 299 and C33A cancer cell lines. Nevertheless, these compounds are believed to have utility in the in vivo methods of the invention, i.e., treatment and prevention of cancer and viral infections, respectively. It should be noted that, although this cell-based assay is believed to be indicative of anti-oncogenic activity in vivo, it is not the only useful assay for evaluating the anti-oncogenic activity of Triheterocyclic Compounds of the invention. In addition, the anti-viral and other biological activity of compounds of the invention can be determined and evaluated in other assay systems known to the skilled artisan.

[5] = system: C33A cervical carcinoma cells; test: cells; format: cell-based; details: Homo sapiens, C-33-A, read-out: IC50 (μM) C33A, Effect on Cancer Cells Viability
Description: as §2, §3

[6] = Shelf stability (precipitation) of formulation; format: physicochemical; details: 0.6 mg/mL in 9.6% polyethylene glycol 300, 0.4% polysorbate 20 and 5% dextrose
Method: as §4

[7] = format: in vivo, CB17 SCID/SCID mice
Method: Treatments started on day fourteen after C33A cells transplantation. […]. The negative control group was treated with vehicle alone. […].
Observation continued for 40 days after initial tumor implantation.

[8] = NCI-H1299, H1299, cellular ATP levels as described in Example 2, read-out: IC50 (μM) H1299, Effect on Cancer Cells Viability
[9] = C33A, cellular ATP levels as described in Example 2

| SMILES | IC50 [4, 8] [µM] | IC50 [5, 9] [µM] | also measured |
| --- | --- | --- | --- |
| COC1=CC(c2cc3ccccc3n2C(=O)CC(C)(C)c2c(C)cccc2OP(=O)(O)O)=N/C1=C/c1[nH]c(C)cc1C [Compound 66] |  |  | conversion of pro-drug into Compound 1 [1]: convert a fraction of the pro-drug; solubility (physchem): 10000 µg/mL (≈ 17 mM); conversion of pro-drug into Compound 1 [2]: convert a fraction of the pro-drug; growth of prostatic tumors in mice [3]: significantly reduce the growth of prostatic tumors |
| COC1=CC(c2cc3ccccc3n2COC(=O)C(C)(C)C)=N/C1=C\c1[nH]c(C)cc1C [Compound 64, 2,2-Dimethyl-propionic acid 2-[5-(3,5-dimethyl-1H-pyrrol-2-ylmethylene)-4-methoxy-5H-pyrrol-2-yl]-indol-1-ylmethyl ester] | 13.3 | 14.2 |  |
| COC1=CC(c2cc3cc(OC)c(OC)cc3n2C(=O)OC(C)(C)C)=N/C1=C\c1[nH]c(C)cc1C [Compound 5, 2-[5-(3,5-Dimethyl-1H-pyrrol-2-ylmethylene)-4-methoxy-5H-pyrrol-2-yl]-5,6-dimethoxy-indole-1-carboxylic acid tert-butyl ester] | 2.26 | 2.24 |  |
| COC1=CC(c2cc3cc(OC)c(OC)cc3[nH]2)=N/C1=C\c1[nH]c(C)cc1C [Compound 4, 2-[5-(3,5-Dimethyl-1H-pyrrol-2-ylmethylene)-4-methoxy-5H-pyrrol-2-yl]-5,6-dimethoxy-1H-indole] | 0.215 | 0.25 |  |
| C=CCNCc1c(C2=N/C(=C\c3[nH]c(C)cc3C)C(OC)=C2CO)[nH]c2ccccc12 [Compound 13, [2-(3-Allylaminomethyl-1H-indol-2-yl)-5-(3,5-dimethyl-1H-pyrrol-2-ylmethylene)-4-methoxy-5H-pyrrol-3-yl]-methanol] | 0.717 | 0.44 |  |
| COC1=CC(c2cc3cc(Br)ccc3[nH]2)=N/C1=C\c1[nH]c(C)cc1C [Compound 7, 5-Bromo-2-[5-(3,5-dimethyl-1H-pyrrol-2-ylmethylene)-4-methoxy-5H-pyrrol-2-yl]-1H-indole] | 1.73 | 2.23 |  |
| CCOC(=O)COC1=CC(c2cc3ccccc3[nH]2)=N/C1=C\c1[nH]c(C)cc1C [Compound 53, [2-(3,5-Dimethyl-1H-pyrrol-2-ylmethylene)-5-(1H-indol-2-yl)-2H-pyrrol-3-yloxy]-acetic acid ethyl ester] |  |  | IC50 ([4]; NCI-H1299, read-out: IC50 (μM) H1299, Effect on Cancer Cells Viability): 10.6 µM; IC50 [5]: 10.2 µM |
| COC1=CC(c2cc3ccccc3n2C(=O)OC(C)(C)C)=N/C1=C\c1[nH]c(C)cc1C [Compound 49, 2-[5-(3,5-Dimethyl-1H-pyrrol-2-ylmethylene)-4-methoxy-5H-pyrrol-2-yl]-indole-1-carboxylic acid tert-butyl ester] | 3 | 2 |  |
| COC1=CC(c2cc3ccccc3[nH]2)=N/C1=C\c1[nH]ccc1OC [Compound 3, 2-[4-Methoxy-5-(3-methoxy-1H-pyrrol-2-ylmethylene)-5H-pyrrol-2-yl]-1H-indole] | 0.3 | 0.52 |  |
| COC1=CC(c2cc3ccccc3[nH]2)=N/C1=C\c1[nH]c(C)cc1C [Compound 1 Mesylate Salt] |  |  | precipitation of formulation [6]: no evidence of precipitation 72 hours after its preparation; growth of prostatic tumors in mice [3]: significantly reduce the growth of prostatic tumors |
| COC1=CC(c2cc3ccccc3n2C(=O)Nc2ccc(OCc3ccccc3)cc2)=N/C1=C\c1[nH]c(C)cc1C [Compound 54, 2-[5-(3,5-Dimethyl-1H-pyrrol-2-ylmethylene)-4-methoxy-5H-pyrrol-2-yl]-indole-1-carboxylic acid (4-benzyloxy-phenyl)-amide] | 0.187 | 0.145 |  |
| COC1=CC(c2[nH]c3ccccc3c2C(=O)c2ccoc2)=N/C1=C\c1[nH]c(C)cc1C [Compound 27, {2-[5-(3,5-Dimethyl-1H-pyrrol-2-ylmethylene)-4-methoxy-5H-pyrrol-2-yl]-1H-indol-3-yl}-furan-3-yl-methanone] | 15.3 | 10 |  |
| N.N.[Cl][Pt][Cl] [cisplatin, reference compound] |  |  | deaths ([7]; cisplatin 4 mg/kg IP, days 29 and 32): Two mice died; weight loss ([7]; day 29, cisplatin 4 mg/kg IP once every 3 days for five times): 28% |
| COC1=CC(c2[nH]c3ccccc3c2CO)=N/C1=C\c1[nH]c(C)cc1C [Compound 37] | 1.35 | 1.29 |  |
| COC1=CC(c2cc3ccccc3n2C(=O)C(C)C)=N/C1=C\c1[nH]c(C)cc1C [Compound 35, 1-{2-[5-(3,5-Dimethyl-1H-pyrrol-2-ylmethylene)-4-methoxy-5H-pyrrol-2-yI]-indol-1-yl}-2-methyl-propan-1-one] | 0.197 | 0.167 |  |
| COC1=CC(c2cc3ccccc3[nH]2)=N/C1=C\c1[nH]c(C)c(CCCO)c1C [Compound 41, 3-{5-[5-(1H-indol-2-yl)-3-methoxy-pyrrol-2-ylidenemethyl]-2,4-dimethyl-1H-pyrrol-3-yl}-propan-1-ol] | 3.35 | 1.79 |  |
| COC1=CC(c2cc3ccccc3[nH]2)=N/C1=C\c1[nH]c(C)c(I)c1C [Compound 2, 2-[5-(4-Iodo-3,5-dimethyl-1H-pyrrol-2-ylmethylene)-4-methoxy-5H-pyrrol-2-yl]-1H-indole] | 0.53 | 0.65 |  |
| COC1=CC(c2[nH]c3ccccc3c2I)=N/C1=C\c1[nH]c(C)c(I)c1C [Compound 17, 3-Iodo-2-[5-(4-iodo-3,5-dimethyl-1H-pyrrol-2-ylmethylene)-4-methoxy-5H-pyrrol-2-yl]-1H-indole] | 5.37 | 5.69 |  |
| COC1=CC(c2cc3ccccc3n2C(=O)Nc2ccc(N(C)C)cc2)=N/C1=C\c1[nH]c(C)cc1C [Compound 52, 2-[5-(3,5-Dimethyl-1H-pyrrol-2-ylmethylene)-4-methoxy-5H-pyrrol-2-yl]-indole-1-carboxylic acid (4-dimethylamino-phenyl)-amide] | 1.04 | 1.11 |  |
| Cc1cc(C)c(/C=C2\N=C(c3cc4c(O)cccc4[nH]3)C=C2OC(C)C)[nH]1 [Compound 57, 2-[5-(3,5-Dimethyl-1H-pyrrol-2-ylmethylene)-4-isopropoxy-5H-pyrrol-2-yl]-1H-indol-4-ol] | 5.9 | 3.75 |  |
